This note sets out measurements from patent US10358435B2, “Triazolyl pyrimidinone compounds as PDE2 inhibitors” (Merck Sharp & Dohme Corp., priority 2015, dated 2019).

Each structure is given as a SMILES string.

This assay addresses human PDE2A1 (Homo sapiens (Human), UniProt O00408). In words: IMAP fluorescence polarization assay, human PDE2A1 (PDE selectivity panel). The format is biochemical. The settings on record: for Ki: FAM cAMP 50 nM with 1000 nM cGMP. As for the experimental part:
The activity of the compounds in accordance with the present invention as PDE2 inhibitors may be readily determined using a fluorescence polarization (FP) methodology (Huang, W., et al., J. Biomol Screen, 2002, 7: 215).
Dose-inhibition profiles for each compound were characterized by fitting the mP data to a four-parameter equation given below.
Selectivity for PDE2, as compared to other PDE families, was assessed using the IMAP® technology. Human PDE10A2 enzyme was prepared from cytosolic fractions of transiently transfected HEK cells. All other PDE's were GST Tag human enzyme expressed in insect cells and were obtained from BPS Bioscience (San Diego, Calif.): PDE1A (Cat#60010), human PDE2A1 (Cat#60020), PDE3A (Cat#60030), PDE4A1A (Cat#60040), PDE5A1 (Cat#60050), PDE6C (Cat#60060), PDE7A (Cat#60070), PDE8A1 (Cat#60080), PDE9A2 (Cat#60090), PDE11A4 (Cat#60110).
Assays for PDE 1 through 11 were performed in parallel at room temperature in 384-well microtiter plates with an incubation volume of 20.2 μL. Solutions of test compounds were prepared in DMSO and serially diluted with DMSO to yield 30 μL of each of ten solutions differing by 3-fold in concentration, at 32 serial dilutions per plate. […] A Labcyte POD 810 (Labcyte, Sunnyvale, Calif.) was used to dispense 200 nL from each well of the titration plate to make eleven copies of the assay plate for each titration, one copy for each PDE enzyme. A solution of each enzyme (dilution from aliquots, sufficient to produce 20% substrate conversion) and a separate solution of FAM-labeled cAMP or FAM-labeled cGMP from Molecular Devices (Sunnyvale, Calif., product # R7506 or cGMP#R7508), at a final concentration of 50 nM were made in the assay buffer (10 mM Tris HCl, pH 7.2, 10 mM MgCl2, 0.05% NaN3 0.01% Tween-20, and 1 mM DTT). Note that the substrate for PDE2 is 50 nM FAM cAMP containing 1000 nM of cGMP. The enzyme and the substrate were then added to the assay plates in two consecutive additions of 10 μL and then shaken to mix. The reaction was allowed to proceed at room temperature for 60 minutes. A binding solution was then made from the kit components, comprised of 80% Solution A, 20% Solution B and binding reagent at a volume of 1/600 the total binding solution. The enzymatic reaction was stopped by addition of 60 μL of the binding solution to each well of the assay plate. The plates were sealed and shaken for 10 seconds. The plates were incubated at room temperature for one hour, then the parallel and perpendicular fluorescence was measured using a Tecan Genios Pro plate reader (Tecan, Switzerland). The apparent inhibition constants for the compounds against all 11 PDE's was determined from the parallel and perpendicular fluorescent readings as described for PDE10 FP assay using the following apparent KM values for each enzyme and substrate combination: PDE1A (FAM cGMP) 70 nM, human PDE2A1 (FAM cAMP) 10,000 nM, PDE3A (FAM cAMP) 50 nM, PDE4A1A (FAM cAMP) 1500 nM, PDE5A1 (FAM cGMP) 400 nM, PDE6C (FAM cGMP) 700 nM, PDE7A (FAM cAMP) 150 nM, PDE8A1 (FAM cAMP) 50 nM, PDE9A2 (FAM cGMP) 60 nM, PDE10A2 (FAM cAMP) 150 nM, PDE11A4 (FAM cAMP) 1000 nM. The intrinsic PDE2 inhibitory activity of a compound which may be used in accordance with the present invention may be determined by these assays.
On the technique in general: In fluorescence polarisation assays a small probe gives low polarisation when free and higher when bound to something large.

By Ki is commonly meant a dissociation constant, usually derived from enzyme kinetics or from competition with a known ligand. The term inhibition denotes the relative decrease from the control value, in per cent.

Sequence of human PDE2A1 (O00408 other isoform, or with tags, fused parts or gaps): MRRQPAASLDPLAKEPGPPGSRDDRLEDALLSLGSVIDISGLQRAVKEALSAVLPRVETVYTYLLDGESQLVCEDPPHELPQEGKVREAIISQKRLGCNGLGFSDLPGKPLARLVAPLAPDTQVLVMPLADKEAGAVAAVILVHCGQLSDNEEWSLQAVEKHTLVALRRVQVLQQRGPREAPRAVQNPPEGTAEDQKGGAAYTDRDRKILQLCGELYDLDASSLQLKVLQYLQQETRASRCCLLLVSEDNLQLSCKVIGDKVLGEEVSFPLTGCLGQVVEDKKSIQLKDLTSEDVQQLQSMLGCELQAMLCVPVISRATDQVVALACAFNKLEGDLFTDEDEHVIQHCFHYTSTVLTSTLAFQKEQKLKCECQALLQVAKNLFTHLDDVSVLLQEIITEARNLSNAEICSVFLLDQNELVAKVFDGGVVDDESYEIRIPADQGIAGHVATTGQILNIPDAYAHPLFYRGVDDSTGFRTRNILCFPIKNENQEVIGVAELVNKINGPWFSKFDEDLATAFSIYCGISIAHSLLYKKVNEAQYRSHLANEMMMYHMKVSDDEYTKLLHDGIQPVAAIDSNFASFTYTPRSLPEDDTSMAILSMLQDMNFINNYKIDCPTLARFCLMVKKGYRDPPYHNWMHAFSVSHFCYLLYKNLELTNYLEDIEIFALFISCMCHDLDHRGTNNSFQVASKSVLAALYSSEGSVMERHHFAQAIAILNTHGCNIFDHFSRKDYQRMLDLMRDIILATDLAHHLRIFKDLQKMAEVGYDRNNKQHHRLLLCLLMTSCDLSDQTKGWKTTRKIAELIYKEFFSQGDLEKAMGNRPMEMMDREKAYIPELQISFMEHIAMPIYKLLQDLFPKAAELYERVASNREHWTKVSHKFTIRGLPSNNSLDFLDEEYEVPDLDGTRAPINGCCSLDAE

Take `Cc1nc(-c2nnn3c2CCC[C@]3(C)c2ccc(OC(F)(F)F)cc2)cc(=O)[nH]1` (single isomer, unassigned) [Example 77]: the Ki turned out to be 2800 nM.
As for `Cc1nc(-c2nnn3c2CCC3(C)c2ccc(C(F)(F)F)cc2F)cc(=O)[nH]1` (single isomer, unassigned) [Example 98, (S)- or (R)-6-(6-(2-Fluoro-4-(trifluoromethyl)phenyl)-6-methyl-5,6-dihydro-4H-pyrolo[1,2-c][1,2,3]triazol-3-yl)-2-methylpyrimidin-4(3H)-one], the Ki is 218 nM.
As for `Cc1nc(-c2cn([C@H](C)c3ccc(C(F)(F)F)cc3C)nn2)cc(=O)[nH]1` (single isomer, unassigned) [Example 10], the Ki stood at 132 nM.
As to `Cc1nc(-c2nnn3c2CCC[C@]3(C)c2ccc(C(F)(F)F)cc2C)cc(=O)[nH]1` (single isomer, unassigned) [Example 79], the inhibition constant Ki stood at 8.3 nM.
In the case of `Cc1nc(-c2cn(C(C)c3ccc(C(F)(F)F)cc3F)nn2)cc(=O)[nH]1` (single isomer, unassigned) [Example 27, (R)- or (S)-6-(1-(1-(2-fluoro-4-(trifluoromethyl)phenyl)ethyl)-1H-1,2,3-triazol-4-yl)-2-methylpyrimidin-4(3H)-one], the Ki turned out to be 46.6 nM.
For the compound `Cc1nc(-c2nnc(C(C)c3ccc(C(F)(F)F)cc3F)[nH]2)cc(=O)[nH]1` (single isomer, unassigned) [Example 62, (S)- or (R)-6-(5-(1-(2-fluoro-4-(trifluoromethyl)-phenyl)ethyl)-4H-1,2,4-triazol-3-yl)-2-methylpyrimidin-4(3H)-one], the Ki was 387 nM.
For the compound `Cc1nc(-c2nnn3c2CCCCC3c2ccc(C(F)(F)F)cc2)cc(=O)[nH]1` (single isomer, unassigned) [Example 51, (R)- or (S)-2-methyl-6-(8-(4-(trifluoromethyl)phenyl)-5,6,7,8-tetrahydro-4H-[1,2,3]triazolo[1,5-a]azepin-3-yl)pyrimidin-4(3H)-one], the Ki was 79.9 nM.
On the same count and under the same terms, then `Cc1nc(-c2nnc(C(C)c3ccc(C(F)(F)F)cc3Cl)n2C)cc(=O)[nH]1` (single isomer, unassigned) [Example 68, (S)- or (R)-6-(5-(1-(2-chloro-4-(trifluoromethyl)-phenyl)ethyl)-4-methyl-4H-1,2,4-triazol-3-yl)-2-methylpyrimidin-4(3H)-one], with 7.7 nM; and `Cc1nc(-n2cnc([C@H](C)c3ccc(C(F)(F)F)cc3F)n2)cc(=O)[nH]1` (single isomer, unassigned) [Example 85], with 1200 nM.
For `Cc1nc(-c2nnc(C(C)c3ccc(C(F)(F)F)cc3F)n2C)cc(=O)[nH]1` (single isomer, unassigned) [Example 63, (R)- or (S)-6-(5-(1-(2-fluoro-4-(trifluoromethyl)-phenyl)ethyl)-4-methyl-4H-1,2,4-triazol-3-yl)-2-methylpyrimidin-4(3H)-one], the inhibition at 3 µM is 16%.
In the case of `Cc1nc(-c2cnn(C(C)c3ccc(C(F)(F)F)cc3C)n2)cc(=O)[nH]1` (single isomer, unassigned) [Example 6, (S)- or (R)-2-methyl-6-(2-(1-(2-methyl-4-(trifluoromethyl)phenyl)ethyl)-2H-1,2,3-triazol-4-yl)pyrimidin-4(3H)-one], the Ki is approximately 1900 nM.
On to `CCc1ccc(C(C)n2cc(-c3cc(=O)[nH]c(C)n3)nn2)c(Cl)c1` (single isomer, unassigned) [Example 20, (S)- or (R)-6-(1-(1-(2-chloro-4-ethylphenyl)ethyl)-1H-1,2,3-triazol-4-yl)-2-methylpyrimidin-4(3H)-one], for which the Ki was 46.7 nM.
As to `CCc1ccc([C@]2(C)CCCc3c(-c4cc(=O)[nH]c(C)n4)nnn32)c(F)c1` (single isomer, unassigned) [Example 95], the Ki turned out to be 1.8 nM.
Same read-out and setting: then `Cc1nc(-c2nnc3n2CCCC3(C)c2ccc(C(F)(F)F)cc2)cc(=O)[nH]1` (single isomer, unassigned) [Example 73, (S)- or (R)-2-methyl-6-(8-methyl-8-(4-(trifluoromethyl)phenyl)-5,6,7,8-tetrahydro-[1,2,4]triazolo[4,3-a]pyridin-3-yl)pyrimidin-4(3H)-one], with 26.9 nM; and `CCC(c1ccc(C(F)(F)F)cc1F)n1cc(-c2cc(=O)[nH]c(C)n2)nn1` (single isomer, unassigned) [Example 37, (R)- or (S)-6-(1-(1-(2-fluoro-4-(trifluoromethyl)phenyl)propyl-1H-1,2,3-triazol-4-yl)-2-methylpyrimidin-4(3H)-one], with 11 nM; and `CCc1ccc([C@]2(C)CCCc3c(-c4cc(=O)[nH]c(C)n4)nnn32)c(F)c1` (single isomer, unassigned) [Example 96], with 430 nM.
In the case of `Cc1nc(-c2cnn([C@H](C)c3ccc(C(F)(F)F)cc3Cl)n2)cc(=O)[nH]1` (single isomer, unassigned) [Example 2], the Ki is approximately 1300 nM.
As to `Cc1nc(-c2cnn(C(C)c3ccc(C(F)(F)F)cc3F)n2)cc(=O)[nH]1` (single isomer, unassigned) [Example 3, (R)- or (S)-6-(2-(1-(2-fluoro-4-(trifluoromethyl)phenyl)ethyl)-2H-1,2,3-triazol-4-yl)-2-metylpyrimidin-4(3H)-one], the Ki amounted to 112 nM.
Take `Cc1nc(-n2cc([C@H](C)c3ccc(C(F)(F)F)cc3Cl)nn2)cc(=O)[nH]1` (single isomer, unassigned) [Example 75]: the Ki was found to be 8.9 nM.
Regarding `CCc1ccc(C(C)n2ncc(-c3cc(=O)[nH]c(C)n3)n2)c(Cl)c1` (single isomer, unassigned) [Example 8, (S)- or (R)-6-(2-(1-(2-chloro-4-ethylphenyl)ethyl)-2H-1,2,3-triazol-4-yl)-2-methylpyrimidin-4(3H)-one], the Ki was approximately 1550 nM.
Consider `Cc1nc(-c2nnn3c2CCC[C@]3(C)c2ccc(C(F)(F)F)cc2Cl)cc(=O)[nH]1` (single isomer, unassigned) [Example 88], for which the Ki is more than 2960 nM.
With `Cc1nc(-c2nnc(C(C)c3ccc(C(F)(F)F)cc3Cl)[nH]2)cc(=O)[nH]1` (single isomer, unassigned) [Example 66, (S)- or (R)-6-(5-(1-(2-chloro-4-(trifluoromethyl)-phenyl)ethyl)-4H-1,2,4-triazol-3-yl)-2-methylpyrimidin-4(3H)-one], the Ki is 525 nM.
With `Cc1nc(-c2nnc3n2CCCC3(C)c2ccc(C(F)(F)F)cc2)cc(=O)[nH]1` (single isomer, unassigned) [Example 72, (S)- or (R)-2-methyl-6-(8-methyl-8-(4-(trifluoromethyl)phenyl)-5,6,7,8-tetrahydro-[1,2,4]triazolo[4,3-a]pyridin-3-yl)pyrimidin-4(3H)-one], the Ki stood at 864 nM.
On to `Cc1nc(-c2nnc3n2CCC[C@H]3c2ccc(C(F)(F)F)cc2)cc(=O)[nH]1` (single isomer, unassigned) [Example 70], for which the Ki turned out to be 54.3 nM.
As to `Cc1nc(-c2nnn3c2CCCCC3c2ccc(C(F)(F)F)cc2)cc(=O)[nH]1` (single isomer, unassigned) [Example 52, (S)- or (R)-2-methyl-6-(8-(4-(trifluoromethyl)phenyl)-5,6,7,8-tetrahydro-4H-[1,2,3]triazolo[1,5-a]azepin-3-yl)pyrimidin-4(3H)-one], the Ki is 139 nM.
Take `Cc1nc(-c2nnn3c2CCCCC3(C)c2ccc(C(F)(F)F)cc2F)cc(=O)[nH]1` (single isomer, unassigned) [Example 94, (S)- or (R)-6-(8-(2-Fluoro-4-(triflouromethyl)phenyl)-8-methyl-5,6,7,8-tetrahydro-4H-[1,2,3]triazolo[1,5-a]azepin-3-yl)-2-methylpyrimidin-4(3H)-one]: the Ki came out at 56.3 nM.
